Assay: xn = mol fraction of the nth substance listed
Details: Liquid, Pycnometric method

CCCCBr [1-bromobutane] + O=C=O
mass density [kg/m3]
Details | 313.1 K | 316.1 K
7910 kPa, x1 = 0.0461 | 769 | –
7950 kPa, x1 = 0.0683 | 826 | –
7990 kPa, x1 = 0.0245 | 619 | –
8000 kPa, x1 = 0.0245 | 621 | –
8010 kPa, x1 = 0.0461 | 775 | –
8030 kPa, x1 = 0.0245 | 628 | –
8060 kPa, x1 = 0.0683 | 829 | –
8070 kPa, x1 = 0.0245 | 635 | –
8090 kPa, x1 = 0.1495 | 1001 | –
8100 kPa, x1 = 0.0245 | 641 | –
8100 kPa, x1 = 0.0461 | 780 | –
8140 kPa, x1 = 0.0245 | 649 | –
8170 kPa, x1 = 0.0683 | 832 | –
8170 kPa, x1 = 0.0989 | 893 | –
8190 kPa, x1 = 0.0245 | 656 | –
8240 kPa, x1 = 0.0245 | 663 | –
8240 kPa, x1 = 0.0461 | 786 | –
8270 kPa, x1 = 0.0245 | – | 528
8280 kPa, x1 = 0.0245 | – | 532
8290 kPa, x1 = 0.0683 | 835 | –
8300 kPa, x1 = 0.0245 | 671 | 537
8320 kPa, x1 = 0.0245 | – | 543
8340 kPa, x1 = 0.0245 | – | 549
8360 kPa, x1 = 0.0245 | 679 | 556
8360 kPa, x1 = 0.0461 | 791 | –
8380 kPa, x1 = 0.0245 | – | 562
8390 kPa, x1 = 0.0683 | 838 | –
8410 kPa, x1 = 0.0245 | – | 572
8430 kPa, x1 = 0.0245 | 687 | –
8460 kPa, x1 = 0.0245 | – | 582
8460 kPa, x1 = 0.1495 | 1004 | –
8500 kPa, x1 = 0.0461 | 797 | –
8530 kPa, x1 = 0.0245 | 695 | –
8540 kPa, x1 = 0.0683 | 842 | –
8560 kPa, x1 = 0.0989 | 900 | –
8620 kPa, x1 = 0.0245 | 703 | –
8650 kPa, x1 = 0.0461 | 802 | –
8660 kPa, x1 = 0.0683 | 845 | –
8740 kPa, x1 = 0.0245 | 712 | –
8790 kPa, x1 = 0.0683 | 848 | –
8790 kPa, x1 = 0.1495 | 1008 | –
8840 kPa, x1 = 0.0461 | 808 | –
8860 kPa, x1 = 0.0245 | 720 | –
8930 kPa, x1 = 0.0683 | 851 | –
9010 kPa, x1 = 0.0245 | 729 | –
9030 kPa, x1 = 0.0989 | 907 | –
9040 kPa, x1 = 0.0461 | 814 | –
9110 kPa, x1 = 0.0683 | 854 | –
9180 kPa, x1 = 0.0245 | 738 | –
9240 kPa, x1 = 0.0461 | 820 | –
9260 kPa, x1 = 0.0683 | 858 | –
9380 kPa, x1 = 0.0245 | 748 | –
9440 kPa, x1 = 0.0683 | 861 | –
9470 kPa, x1 = 0.0461 | 826 | –
9480 kPa, x1 = 0.0989 | 913 | –
9540 kPa, x1 = 0.1495 | 1015 | –
9580 kPa, x1 = 0.0683 | 864 | –
9600 kPa, x1 = 0.0245 | 758 | –
9710 kPa, x1 = 0.0461 | 833 | –
9790 kPa, x1 = 0.0683 | 868 | –
9850 kPa, x1 = 0.0245 | 767 | –
9950 kPa, x1 = 0.1495 | 1018 | –
9990 kPa, x1 = 0.0461 | 840 | –
10020 kPa, x1 = 0.0989 | 920 | –
10150 kPa, x1 = 0.0245 | 778 | –
10330 kPa, x1 = 0.1495 | 1022 | –
10450 kPa, x1 = 0.0245 | 788 | –
10600 kPa, x1 = 0.0989 | 927 | –
10770 kPa, x1 = 0.1495 | 1026 | –
10840 kPa, x1 = 0.0245 | 799 | –
11180 kPa, x1 = 0.0989 | 933 | –
11240 kPa, x1 = 0.1495 | 1030 | –
11280 kPa, x1 = 0.0245 | 810 | –
11690 kPa, x1 = 0.1495 | 1033 | –
11760 kPa, x1 = 0.0245 | 821 | –
11850 kPa, x1 = 0.0989 | 941 | –
12120 kPa, x1 = 0.1495 | 1036 | –
12160 kPa, x1 = 0.0989 | 944 | –
12320 kPa, x1 = 0.0245 | 833 | –
12560 kPa, x1 = 0.0989 | 948 | –
12600 kPa, x1 = 0.1495 | 1040 | –
12960 kPa, x1 = 0.0245 | 845 | –
13090 kPa, x1 = 0.1495 | 1044 | –
13640 kPa, x1 = 0.1495 | 1047 | –
13700 kPa, x1 = 0.0245 | 857 | –
14170 kPa, x1 = 0.1495 | 1051 | –
14530 kPa, x1 = 0.0245 | 870 | –
14740 kPa, x1 = 0.1495 | 1056 | –
14980 kPa, x1 = 0.0245 | 876 | –
15070 kPa, x1 = 0.1495 | 1058 | –
15150 kPa, x1 = 0.0245 | 879 | –
15320 kPa, x1 = 0.1495 | 1060 | –
